PubChem BioAssay (NCI)
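Exposure lasted 48 hours, with cells grown in 96-well plates and compounds tested at five concentrations. TGI: concentration producing complete growth inhibition.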

What was measured:
Assay in all cases: NCI tumour cell line growth inhibition, 48 h
RXF 393 renal = tested on: RXF 393 renal
OVCAR-4 ovarian = tested on: OVCAR-4 ovarian
LXFL 529 NSCLC = tested on: LXFL 529 NSCLC
KM20L2 colon = tested on: KM20L2 colon
TK-10 renal = tested on: TK-10 renal
K-562 leukemia = tested on: K-562 leukemia
HT29 colon = tested on: HT29 colon
SF-268 CNS = tested on: SF-268 CNS
OVCAR-8 ovarian = tested on: OVCAR-8 ovarian
A498 renal = tested on: A498 renal
SK-OV-3 ovarian = tested on: SK-OV-3 ovarian
HL-60(TB) leukemia = tested on: HL-60(TB) leukemia
M14 melanoma = tested on: M14 melanoma
ACHN renal = tested on: ACHN renal
HOP-92 NSCLC = tested on: HOP-92 NSCLC
HCT-116 colon = tested on: HCT-116 colon
UO-31 renal = tested on: UO-31 renal
SN12C renal = tested on: SN12C renal
SNB-78 CNS = tested on: SNB-78 CNS
SNB-19 CNS = tested on: SNB-19 CNS
MOLT-4 leukemia = tested on: MOLT-4 leukemia
XF 498 CNS = tested on: XF 498 CNS
HCC-2998 colon = tested on: HCC-2998 colon
SR leukemia = tested on: SR leukemia
HOP-62 NSCLC = tested on: HOP-62 NSCLC
SK-MEL-28 melanoma = tested on: SK-MEL-28 melanoma
SK-MEL-2 melanoma = tested on: SK-MEL-2 melanoma
LOX IMVI melanoma = tested on: LOX IMVI melanoma
NCI-H522 lung = tested on: NCI-H522 lung
DMS 114 small cell lung = tested on: DMS 114 small cell lung
RPMI-8226 leukemia = tested on: RPMI-8226 leukemia
DLD-1 colon = tested on: DLD-1 colon
NCI-H460 lung = tested on: NCI-H460 lung
SNB-75 CNS = tested on: SNB-75 CNS
SK-MEL-5 melanoma = tested on: SK-MEL-5 melanoma
NCI-H226 lung = tested on: NCI-H226 lung
NCI-H23 lung = tested on: NCI-H23 lung
MALME-3M melanoma = tested on: MALME-3M melanoma
SW-620 colon = tested on: SW-620 colon
HCT-15 colon = tested on: HCT-15 colon
786-0 renal = tested on: 786-0 renal
OVCAR-5 ovarian = tested on: OVCAR-5 ovarian
CAKI-1 renal = tested on: CAKI-1 renal
M19-MEL melanoma = tested on: M19-MEL melanoma
SF-295 CNS = tested on: SF-295 CNS
DMS 273 small cell lung = tested on: DMS 273 small cell lung
IGROV1 ovarian = tested on: IGROV1 ovarian
KM12 colon = tested on: KM12 colon
CCRF-CEM leukemia = tested on: CCRF-CEM leukemia
SF-539 CNS = tested on: SF-539 CNS
UACC-257 melanoma = tested on: UACC-257 melanoma
A549 NSCLC = tested on: A549 NSCLC
UACC-62 melanoma = tested on: UACC-62 melanoma
COLO 205 colon = tested on: COLO 205 colon
U251 CNS = tested on: U251 CNS
EKVX NSCLC = tested on: EKVX NSCLC
OVCAR-3 ovarian = tested on: OVCAR-3 ovarian
HOP-18 NSCLC = tested on: HOP-18 NSCLC

COC(=O)c1nn(C(=N)c2ccc(Cl)cc2)c2c1CCC2
TGI (RXF 393 renal): > 100 µM | TGI (OVCAR-4 ovarian): > 100 µM | TGI (LXFL 529 NSCLC): > 100 µM | TGI (KM20L2 colon): > 100 µM | TGI (TK-10 renal): > 100 µM | TGI (K-562 leukemia): > 100 µM | TGI (HT29 colon): > 100 µM | TGI (SF-268 CNS): > 100 µM | TGI (OVCAR-8 ovarian): > 100 µM | TGI (A498 renal): > 100 µM | TGI (SK-OV-3 ovarian): > 100 µM | TGI (HL-60(TB) leukemia): > 100 µM | TGI (M14 melanoma): > 100 µM | TGI (ACHN renal): > 100 µM | TGI (HOP-92 NSCLC): > 100 µM | TGI (HCT-116 colon): > 100 µM | TGI (UO-31 renal): > 100 µM | TGI (SN12C renal): > 100 µM | TGI (SNB-78 CNS): > 100 µM | TGI (SNB-19 CNS): > 100 µM | TGI (MOLT-4 leukemia): > 100 µM | TGI (XF 498 CNS): > 100 µM | TGI (HCC-2998 colon): > 100 µM | TGI (SR leukemia): 92.3 µM | TGI (HOP-62 NSCLC): > 100 µM | TGI (SK-MEL-28 melanoma): > 100 µM | TGI (SK-MEL-2 melanoma): > 100 µM | TGI (LOX IMVI melanoma): > 100 µM | TGI (NCI-H522 lung): > 100 µM | TGI (DMS 114 small cell lung): > 100 µM | TGI (RPMI-8226 leukemia): > 100 µM | TGI (DLD-1 colon): > 100 µM | TGI (NCI-H460 lung): > 100 µM | TGI (SNB-75 CNS): > 100 µM | TGI (SK-MEL-5 melanoma): > 100 µM | TGI (NCI-H226 lung): > 100 µM | TGI (NCI-H23 lung): > 100 µM | TGI (MALME-3M melanoma): > 100 µM | TGI (SW-620 colon): > 100 µM | TGI (HCT-15 colon): > 100 µM | TGI (786-0 renal): > 100 µM | TGI (OVCAR-5 ovarian): > 100 µM | TGI (CAKI-1 renal): > 100 µM | TGI (M19-MEL melanoma): > 100 µM | TGI (SF-295 CNS): > 100 µM | TGI (DMS 273 small cell lung): > 100 µM | TGI (IGROV1 ovarian): > 100 µM | TGI (KM12 colon): > 100 µM | TGI (CCRF-CEM leukemia): > 100 µM | TGI (SF-539 CNS): > 100 µM | TGI (UACC-257 melanoma): > 100 µM | TGI (A549 NSCLC): > 100 µM | TGI (UACC-62 melanoma): > 100 µM | TGI (COLO 205 colon): > 100 µM | TGI (U251 CNS): > 100 µM

O=C(CC/C(CC(=O)c1ccc(Br)cc1)=N\O)Nc1ccc(Cl)c(Cl)c1
TGI (RXF 393 renal): 90.7 µM | TGI (OVCAR-4 ovarian): > 100 µM | TGI (LXFL 529 NSCLC): > 100 µM | TGI (KM20L2 colon): > 100 µM | TGI (EKVX NSCLC): > 100 µM | TGI (TK-10 renal): > 100 µM | TGI (K-562 leukemia): > 100 µM | TGI (HT29 colon): > 100 µM | TGI (SF-268 CNS): > 100 µM | TGI (OVCAR-3 ovarian): > 100 µM | TGI (OVCAR-8 ovarian): > 100 µM | TGI (A498 renal): > 100 µM | TGI (SK-OV-3 ovarian): > 100 µM | TGI (HL-60(TB) leukemia): > 100 µM | TGI (M14 melanoma): > 100 µM | TGI (ACHN renal): > 100 µM | TGI (HOP-92 NSCLC): > 100 µM | TGI (HCT-116 colon): > 100 µM | TGI (UO-31 renal): > 100 µM | TGI (SN12C renal): > 100 µM | TGI (SNB-78 CNS): > 100 µM | TGI (MOLT-4 leukemia): > 100 µM | TGI (HCC-2998 colon): > 100 µM | TGI (SR leukemia): > 100 µM | TGI (HOP-62 NSCLC): > 100 µM | TGI (SK-MEL-28 melanoma): > 100 µM | TGI (SK-MEL-2 melanoma): > 100 µM | TGI (LOX IMVI melanoma): > 100 µM | TGI (NCI-H522 lung): 53.5 µM | TGI (DMS 114 small cell lung): > 100 µM | TGI (RPMI-8226 leukemia): > 100 µM | TGI (DLD-1 colon): > 100 µM | TGI (NCI-H460 lung): > 100 µM | TGI (SNB-75 CNS): > 100 µM | TGI (SK-MEL-5 melanoma): > 100 µM | TGI (NCI-H226 lung): > 100 µM | TGI (NCI-H23 lung): > 100 µM | TGI (MALME-3M melanoma): > 100 µM | TGI (HOP-18 NSCLC): > 100 µM | TGI (SW-620 colon): > 100 µM | TGI (HCT-15 colon): > 100 µM | TGI (786-0 renal): > 100 µM | TGI (OVCAR-5 ovarian): > 100 µM | TGI (M19-MEL melanoma): > 100 µM | TGI (SF-295 CNS): > 100 µM | TGI (DMS 273 small cell lung): > 100 µM | TGI (IGROV1 ovarian): > 100 µM | TGI (KM12 colon): > 100 µM | TGI (CCRF-CEM leukemia): > 100 µM | TGI (SF-539 CNS): > 100 µM | TGI (UACC-257 melanoma): > 100 µM | TGI (A549 NSCLC): > 100 µM | TGI (UACC-62 melanoma): > 100 µM | TGI (COLO 205 colon): > 100 µM | TGI (U251 CNS): > 100 µM

COc1ccc(Sc2ccccc2N)cc1
TGI (RXF 393 renal): 75.6 µM | TGI (OVCAR-4 ovarian): > 100 µM | TGI (LXFL 529 NSCLC): > 100 µM | TGI (KM20L2 colon): > 100 µM | TGI (EKVX NSCLC): > 100 µM | TGI (TK-10 renal): > 100 µM | TGI (K-562 leukemia): > 100 µM | TGI (HT29 colon): 50.5 µM | TGI (SF-268 CNS): > 100 µM | TGI (OVCAR-3 ovarian): > 100 µM | TGI (OVCAR-8 ovarian): > 100 µM | TGI (A498 renal): > 100 µM | TGI (SK-OV-3 ovarian): > 100 µM | TGI (HL-60(TB) leukemia): 60.9 µM | TGI (M14 melanoma): > 100 µM | TGI (ACHN renal): > 100 µM | TGI (HOP-92 NSCLC): 74.4 µM | TGI (HCT-116 colon): > 100 µM | TGI (UO-31 renal): 92.9 µM | TGI (SN12C renal): > 100 µM | TGI (SNB-78 CNS): 97.3 µM | TGI (SNB-19 CNS): > 100 µM | TGI (MOLT-4 leukemia): > 100 µM | TGI (XF 498 CNS): 40 µM | TGI (HCC-2998 colon): > 100 µM | TGI (SR leukemia): > 100 µM | TGI (HOP-62 NSCLC): > 100 µM | TGI (SK-MEL-28 melanoma): 77.3 µM | TGI (SK-MEL-2 melanoma): > 100 µM | TGI (LOX IMVI melanoma): > 100 µM | TGI (DMS 114 small cell lung): > 100 µM | TGI (RPMI-8226 leukemia): > 100 µM | TGI (DLD-1 colon): > 100 µM | TGI (NCI-H460 lung): > 100 µM | TGI (SNB-75 CNS): 62.2 µM | TGI (SK-MEL-5 melanoma): 62.9 µM | TGI (NCI-H226 lung): 89.4 µM | TGI (NCI-H23 lung): > 100 µM | TGI (MALME-3M melanoma): > 100 µM | TGI (HOP-18 NSCLC): > 100 µM | TGI (SW-620 colon): > 100 µM | TGI (HCT-15 colon): > 100 µM | TGI (OVCAR-5 ovarian): > 100 µM | TGI (M19-MEL melanoma): > 100 µM | TGI (SF-295 CNS): > 100 µM | TGI (DMS 273 small cell lung): > 100 µM | TGI (IGROV1 ovarian): > 100 µM | TGI (KM12 colon): > 100 µM | TGI (CCRF-CEM leukemia): 83.8 µM | TGI (SF-539 CNS): > 100 µM | TGI (UACC-257 melanoma): > 100 µM | TGI (A549 NSCLC): > 100 µM | TGI (UACC-62 melanoma): > 100 µM | TGI (COLO 205 colon): 32.8 µM | TGI (U251 CNS): 49.8 µM
